Measurements reported in patent publication US8835395B2, “Protein peptide hydrogels” (Kansas State University Research Foundation, priority 2010, dated 2014).
Where a SMILES comes first, the peptide text is derived from it.

Assay: Solubility of peptide in neutral water
Type: physicochemical
Details: neutral water without any pH adjustment

Solubility in water: soluble
Structure (SMILES): CC[C@H](C)[C@H](NC(=O)[C@H](CC(C)C)NC(=O)[C@@H](N)Cc1ccccc1)C(=O)N[C@H](C(=O)N[C@H](C(=O)N1CCC[C@H]1C(=O)N1CCC[C@@H]1C(=O)NCC(=O)N1CCC[C@H]1C(=O)NCC(=O)NCC(=O)N[C@@H](CC(=O)O)C(=O)NCC(=O)N1CCC[C@H]1C(=O)NCC(=O)NCC(=O)N[C@@H](CC(=O)O)C(=O)O)[C@@H](C)CC)C(C)C [h5PP^De, FLIVI-PP^D-GPGGDGPGGD] (HELM PEPTIDE1{F.L.I.V.I.P.[dP].G.P.G.G.D.G.P.G.G.D}$$$$V2.0)
